Key:
butyrylcholinesterase [1] = biological target: T1, butyrylcholinesterase (Equus caballus, UniProt P81908); experiment: biochemical; type: biochemical, horse; conditions: for Change in Absorbance at 412 nm/Minute (Normalized): 10^−7M, normalized to 2-chlorophenyl-di-n-butyl phosphate set as 1.0; for Change in Absorbance at 412 nm/Minute (Not Normalized): compound final concentration 10^−7M; for inhibition at 100 µM: read-out: % inhibition of BuChase
T1 construct: butyrylcholinesterase (from horse serum); purchased Sigma; host or cells: horse serum (natural source)
Protocol: (§1) Cholinesterase activity measurements were performed essentially according to the method of Ellman (Biochemical Pharmacology 7:88-90, 1961). The composition of the assay mixture was 0.1 M sodium phosphate, pH 7.5, 0.033 M DTNB, 0.001 M MgCl2, and 100 μg/mL of BSA containing appropriate amounts of substrate and inhibitor. Each assay was initiated by the addition of substrate and the activity quantified by measuring the formation of the thionitrobenzoate anion at 412 nm at 37° C. Methanol used to solubilize the dialkyl phenyl phosphates [1% (v/v) final concentration] had no inhibitory effect on either enzyme.
. The results were obtained by pre-incubating the enzyme with the compound (final concentration 10^−7M) for various periods of time and measuring the remaining enzyme activity. The results are shown as the change in absorbance at 412 nm/minute. In order to simplify the results from all the compounds, the enzyme activities were normalized to 2-chlorophenyl-di-n-butyl phosphate which was set as 1.0. Since two different preparations of enzyme were used, the normalization procedure would adjust for any differences in the amount of enzyme. […]. In other cases, the compound's inhibitory activity is not as strong and assay conditions were modified to increase the inhibitor concentration.
Table 4: Rates of inactivation of butyrylcholinesterase by exemplary compounds: Change in Absorbance at 412 nm/Minute. (ND=No Data)

[2] = biological target: T2, butyrylcholinesterase (from horse serum) (Equus caballus, UniProt P81908); experiment: Rates of inactivation of butyrylcholinesterase, Ellman assay; type: biochemical; conditions: for k, rate constant of inactivation of butyrylcholinesterase ± S.E.M: 100 nM inhibitor, 25° C.; for effect on BuChase activity under standard conditions: standard conditions (100 nM inhibitor)
T2 construct: butyrylcholinesterase (from horse serum); purchased Sigma; host or cells: horse serum (natural source)
Protocol: (§2) Acetylcholinesterase (from electric eel), butyrylcholinesterase (from horse serum), DTNB, butyrylthiocholine, acetylthiocholine, and BSA were purchased from Sigma. The dialkyl 2-chlorophenyl (and 4-chlorophenyl) phosphates were solubilized in reagent grade methanol.
as §1
(§3) Butyrylcholinesterase was pre-incubated at room temperature with inhibitor in the assay cocktail minus substrate for varying periods of time at 25° C. Substrate was then added and the activity measured as described above. The relative rates of enzyme inactivation were determined by plotting enzyme activity versus time of pre-incubation with inhibitor. Results were expressed as the rate constant for the rate of enzyme inactivation. In the case of AcChase, results were expressed as the % of activity remaining relative to the enzyme incubated only with solvents.
. […] In Table 2, BuChase was incubated for increasing periods of time at 25° C. with 100 nM inhibitor then assayed for activity as described above. Rate constants were calculated from a plot of enzyme activity vs. time of inhibitor exposure. […]. Slopes were calculated by linear regression analysis.

acetylcholinesterase = biological target: T3, acetylcholinesterase (Electrophorus electricus, UniProt O42275); experiment: Native gel electrophoresis activity stain, AcChase; type: biochemical, electric eel; conditions: pre-incubation with inhibitor
T3 construct: Acetylcholinesterase (from electric eel); purchased Sigma; host or cells: electric eel (natural source)
Protocol: (§4) Enzyme activity was also measured by native gel electrophoresis. For cholinesterase activity, proteins (10 μg of both acetylcholinesterase and butyrylcholinesterase) were fractionated on Novex precast 10% Tris glycine gels (Invitrogen). Enzyme activity was detected by first incubating the gels in a solution of 5 mM substrate then staining with a solution of copper sulfate/potassium ferricyanide.
(§5) Using native gel electrophoresis, both AcChase and BuChase activity was detected. Pre-incubation of AcChase with di-ethyl 2-chlorophenyl phosphate had no effect on AcChase activity (FIG. 1).

butyrylcholinesterase [3] = biological target: T1, butyrylcholinesterase; experiment: Phosphorylation of BuChase by 14C-labeled inhibitor, autoradiography; parameters: species or system horse; conditions: 14C-labeled compound, native gel
Protocol: The cholinesterases were pre-incubated with ^14C-di-ethyl-2-chlorophenyl phosphate and then fractionated by native gel electrophoresis as described above. The proteins were fixed in the gel with 10% acetic acid/30% methanol. The fixative was removed and replaced with 100 mL of EN^3HANCE. The gel was incubated for 60 minutes at room temperature with gentle agitation and then placed in 5% PEG and incubated for 30 minutes at room temperature with gentle agitation. The gel was then dried down on a piece of 3 MM filter paper, exposed to X-ray film at −80° C. for 2 weeks, and then developed.

[4] = biological target: T4, Acetylcholinesterase (from electric eel) (Electrophorus electricus, UniProt O42275); experiment: Acetylcholinesterase activity, Ellman assay after pre-incubation with inhibitor; type: biochemical; conditions: 100 μM compound, 60 minutes at 25° C.
T4 construct: Acetylcholinesterase (from electric eel); purchased Sigma; host or cells: electric eel (natural source)
Protocol: as §2, §1, §3
The first series of experiments determined the effect of the dialkyl 2-chlorophenyl (and 4-chlorophenyl) phosphates on both AcChase and BuChase. None of the compounds had any inhibitory effect on AcChase (See Table 1). In Table 1, AcChase was incubated with 100 μM of the indicated phenyl phosphate for 60 minutes at 25° C. and then assayed as described above. Results were expressed as the % activity relative to enzyme incubated with solvent ±SD (standard deviation).

butyrylcholinesterase [5] = biological target: T1, butyrylcholinesterase; experiment: Native gel electrophoresis activity stain, BuChase; type: biochemical, horse; conditions: pre-incubation with inhibitor
Protocol: as §4, §5

[6] = biological target: T2, butyrylcholinesterase (from horse serum); experiment: Rates of inactivation of butyrylcholinesterase, Ellman assay; type: biochemical; conditions: inhibitor at 10^−4M

T1 sequence (P81908 whole entry): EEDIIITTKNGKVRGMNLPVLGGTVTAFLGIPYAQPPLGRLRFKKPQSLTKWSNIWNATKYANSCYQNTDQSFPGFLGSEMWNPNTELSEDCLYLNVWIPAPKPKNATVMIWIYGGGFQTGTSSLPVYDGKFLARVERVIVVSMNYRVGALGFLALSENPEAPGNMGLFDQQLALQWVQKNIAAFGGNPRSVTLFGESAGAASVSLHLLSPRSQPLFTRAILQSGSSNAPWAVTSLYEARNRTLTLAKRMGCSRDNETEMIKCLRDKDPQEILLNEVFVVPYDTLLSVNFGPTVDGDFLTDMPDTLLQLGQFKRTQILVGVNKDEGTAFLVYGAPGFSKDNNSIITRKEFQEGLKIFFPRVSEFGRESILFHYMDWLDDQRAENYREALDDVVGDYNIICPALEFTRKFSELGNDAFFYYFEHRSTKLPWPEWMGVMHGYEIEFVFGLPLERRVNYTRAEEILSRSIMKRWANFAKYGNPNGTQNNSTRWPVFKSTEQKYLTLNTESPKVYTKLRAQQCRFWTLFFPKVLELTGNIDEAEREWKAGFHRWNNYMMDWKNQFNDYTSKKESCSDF
T2 sequence (P81908 whole entry): as above
T4 sequence (O42275 24-633): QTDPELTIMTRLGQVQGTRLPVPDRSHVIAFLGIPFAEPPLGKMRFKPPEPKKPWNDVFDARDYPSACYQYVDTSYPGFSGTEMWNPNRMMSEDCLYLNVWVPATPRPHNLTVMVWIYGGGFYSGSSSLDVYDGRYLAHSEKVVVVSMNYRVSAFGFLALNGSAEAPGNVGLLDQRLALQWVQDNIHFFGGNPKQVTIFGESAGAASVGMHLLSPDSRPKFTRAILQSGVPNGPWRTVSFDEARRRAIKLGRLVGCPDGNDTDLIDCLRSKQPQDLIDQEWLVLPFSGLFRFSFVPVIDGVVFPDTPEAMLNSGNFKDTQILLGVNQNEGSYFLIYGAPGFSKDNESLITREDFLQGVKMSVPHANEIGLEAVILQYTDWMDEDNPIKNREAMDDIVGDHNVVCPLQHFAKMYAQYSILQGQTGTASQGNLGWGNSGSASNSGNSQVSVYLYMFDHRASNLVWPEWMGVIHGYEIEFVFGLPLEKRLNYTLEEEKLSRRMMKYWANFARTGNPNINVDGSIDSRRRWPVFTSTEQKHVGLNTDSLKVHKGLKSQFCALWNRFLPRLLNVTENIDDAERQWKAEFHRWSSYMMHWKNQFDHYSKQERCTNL
T3 sequence (O42275 24-633): as above

CCCCOP(=O)(OCCCC)Oc1ccccc1Br
Change in Absorbance at 412 nm/Minute (Normalized) (butyrylcholinesterase [1]): 1.366 | Change in Absorbance at 412 nm/Minute (Not Normalized) (butyrylcholinesterase [1]): 0.918

CCCCOP(=O)(OCCCC)Oc1cccc(Br)c1
Change in Absorbance at 412 nm/Minute (Normalized) (butyrylcholinesterase [1]): 6.220 | Change in Absorbance at 412 nm/Minute (Not Normalized) (butyrylcholinesterase [1]): 4.18

CCCCOP(=O)(OCCCC)Oc1ccc(Br)cc1
Change in Absorbance at 412 nm/Minute (Normalized) (butyrylcholinesterase [1]): 0.737 | Change in Absorbance at 412 nm/Minute (Not Normalized) (butyrylcholinesterase [1]): 0.495

CCCCOP(=O)(OCCCC)Oc1ccc(Cl)cc1Cl
% inhibition of BuChase after 1 minute (butyrylcholinesterase [1]; standard conditions (10^−7M), 1 minute): 92% inhibition after 1 minute under standard conditions

CCCCOP(=O)(OCCCC)Oc1cccc(F)c1
Change in Absorbance at 412 nm/Minute (Normalized) (butyrylcholinesterase [1]): 0.696 | Change in Absorbance at 412 nm/Minute (Not Normalized) (butyrylcholinesterase [1]): 0.468

CCCCOP(=O)(OCCCC)Oc1ccccc1F
Change in Absorbance at 412 nm/Minute (Normalized) (butyrylcholinesterase [1]): 2.604 | Change in Absorbance at 412 nm/Minute (Not Normalized) (butyrylcholinesterase [1]): 1.75

CCCCOP(=S)(OCCCC)Oc1ccccc1Cl
% inhibition of BuChase (butyrylcholinesterase [1]; compound at 10^−4 M): 14.6% | inhibitory under standard conditions (butyrylcholinesterase [1]; standard conditions (10^−7M)): Not Inhibitory

CCCCOP(=O)(Oc1ccc(Cl)cc1Cl)Oc1ccc(Cl)cc1Cl
inhibition at 100 µM (butyrylcholinesterase [1]; compound at 10^−4 M): 63.4% | inhibitory under standard conditions (butyrylcholinesterase [1]; standard conditions (10^−7M)): Not inhibitory

O=P(Oc1ccccc1)(Oc1ccccc1)Oc1ccccc1Cl
inhibition at 100 µM (butyrylcholinesterase [1]; compound at 10^−4 M): 29.4% | inhibitory under standard conditions (butyrylcholinesterase [1]; standard conditions (10^−7M)): Not inhibitory

CCCCOP(=O)(OCCCC)Oc1ccccc1C
type of inhibition (butyrylcholinesterase [1]): Reversible inhibitor: Ki = 2.1 μM

CCCCOP(=O)(OCCCC)Oc1ccc([N+](=O)[O-])cc1
% Inhibition of BuChase, immediate (butyrylcholinesterase [1]; standard conditions (10^−7M)): 100% Inhibition (Immediate under standard conditions)

CCCCOP(=O)(OCCCC)Oc1cccc([N+](=O)[O-])c1
% Inhibition of BuChase after 2 minutes (butyrylcholinesterase [1]; standard conditions (10^−7M), 2 minutes): 100% | % Inhibition of BuChase, immediate (butyrylcholinesterase [1]; standard conditions (10^−7M)): 83%

CCCCCCP(=O)(OCCCC)Oc1ccccc1Cl (stereo not shown)
Change in Absorbance at 412 nm/Minute (Normalized) (butyrylcholinesterase [1]): 14.94 | Change in Absorbance at 412 nm/Minute (Not Normalized) (butyrylcholinesterase [1]): 10.04

CCCCP(=O)(Oc1ccccc1Cl)Oc1ccccc1Cl
Change in Absorbance at 412 nm/Minute (Normalized) (butyrylcholinesterase [1]): 0.48 | Change in Absorbance at 412 nm/Minute (Not Normalized) (butyrylcholinesterase [1]): 0.32

CCCCP(=O)(CCCC)Oc1ccccc1Cl
Change in Absorbance at 412 nm/Minute (Normalized) (butyrylcholinesterase [1]): 1.018 | Change in Absorbance at 412 nm/Minute (Not Normalized) (butyrylcholinesterase [1]): 0.684

CCCCCCNP(=O)(OCCCC)Oc1ccccc1Cl (stereo not shown)
Change in Absorbance at 412 nm/Minute (Normalized) (butyrylcholinesterase [1]): 1.024 | Change in Absorbance at 412 nm/Minute (Not Normalized) (butyrylcholinesterase [1]): 0.688

CCCCCCNP(=O)(Oc1ccccc1Cl)Oc1ccccc1Cl
inhibition at 100 µM (butyrylcholinesterase [1]; compound at 10^−4 M): 73.9% | inhibitory under standard conditions (butyrylcholinesterase [1]; standard conditions (10^−7M)): Not inhibitory

CCOP(=O)(OCC)Oc1ccccc1Cl [Di-ethyl-, 2-Chlorophenyl diethyl phosphate]
k, rate constant of inactivation of butyrylcholinesterase ± S.E.M [2]: 6.64 ± 2.1 min^−1 × 10^−2 | effect on AcChase activity, native gel (FIG. 1) (acetylcholinesterase): no effect | covalent modification of BuChase (FIG. 2B) (butyrylcholinesterase [3]): covalently modified | % Activity ± SD (acetylcholinesterase activity relative to enzyme incubated with solvent) [4]: 96.77 ± 0.019% | effect on BuChase activity, native gel (FIG. 2A) (butyrylcholinesterase [5]): nearly completely inhibited

CC(C)COP(=O)(OCC(C)C)Oc1ccccc1Cl [Di-iso-butyl-, Di-i-butyl 2-Chlorophenyl phosphate]
k, rate constant of inactivation of butyrylcholinesterase ± S.E.M [2]: 60.83 ± 5.8 min^−1 × 10^−2 | % Activity ± SD (acetylcholinesterase activity relative to enzyme incubated with solvent) [4]: 96.18 ± 0.023%

CC(C)OP(=O)(Oc1ccccc1Cl)OC(C)C [Di-iso-propyl-, 2-Chlorophenyl di-i-propyl phosphate]
effect on BuChase activity under standard conditions [2]: no effect | % Activity ± SD (acetylcholinesterase activity relative to enzyme incubated with solvent) [4]: 97.82 ± 0.045% | % Inhibition of butyrylcholinesterase [6]: 85.3% Inhibition

COP(=O)(OC)Oc1ccccc1Cl [Di-methyl-, 2-Chlorophenyl dimethyl phosphate]
effect on BuChase activity under standard conditions [2]: no effect | % Activity ± SD (acetylcholinesterase activity relative to enzyme incubated with solvent) [4]: 101.9 ± 0.019% | % Inhibition of butyrylcholinesterase [6]: 48.9% Inhibition

CCCCOP(=O)(OCCCC)Oc1ccc(Cl)cc1 [Di-n-butyl-(4Cl), Di-n-butyl 4-chlorophenyl phosphate]
k, rate constant of inactivation of butyrylcholinesterase ± S.E.M [2]: 13.01 ± 2.0 min^−1 × 10^−2 | % Activity ± SD (acetylcholinesterase activity relative to enzyme incubated with solvent) [4]: 97.61 ± 0.006%

CCCCCOP(=O)(OCCCCC)Oc1ccccc1Cl [Di-n-pentyl-, 2-Chlorophenyl di-n-pentyl phosphate]
k, rate constant of inactivation of butyrylcholinesterase ± S.E.M [2]: 30.44 ± 3.3 min^−1 × 10^−2 | activity at 100 µM ([4]; read-out: % Activity ± SD (acetylcholinesterase activity relative to enzyme incubated with solvent)): 101.7 ± 0.03%

CCCOP(=O)(OCCC)Oc1ccccc1Cl [Di-n-propyl-, 2-Chlorophenyl di-n-propyl phosphate]
k, rate constant of inactivation of butyrylcholinesterase ± S.E.M [2]: 20.21 ± 2.2 min^−1 × 10^−2 | % Activity ± SD (acetylcholinesterase activity relative to enzyme incubated with solvent) [4]: 97.38 ± 0.028%

CCCCOP(=O)(OCCCC)Oc1ccc(Cl)cc1 [drawing 55]
Change in Absorbance at 412 nm/Minute (Normalized) (butyrylcholinesterase [1]): 0.338 | Change in Absorbance at 412 nm/Minute (Not Normalized) (butyrylcholinesterase [1]): 0.227

From patent US9757399B2, “Butyrylcholinesterase inhibitors” (priority 2006, dated 2017)
